# PMC10838953
# Legend:
# STAT3 (S727) = settings: 786-O cells; 48 h
# A375 cells = settings: 4 μM, 48 h
# [1] = molecular target: ABL1(T315I)-phosphorylated (Homo sapiens, UniProt P00519, T315I); experiment: biochemical; settings: read-out: %Ctrl @ 2000nM
# ADCK3 = ADCK3 (Homo sapiens, UniProt Q8NI60); experiment: biochemical; settings: read-out: %Ctrl @ 2000nM
# ASK1 = ASK1 (Homo sapiens, UniProt Q99683); experiment: biochemical; settings: read-out: %Ctrl @ 2000nM
# BMPR2 = BMPR2 (Homo sapiens, UniProt Q13873); experiment: biochemical; settings: read-out: %Ctrl @ 2000nM
# CAMK2A = CAMK2A (Homo sapiens, UniProt Q9UQM7); experiment: biochemical; settings: read-out: %Ctrl @ 2000nM
# CDK11 = CDK11 (Homo sapiens, UniProt Q9BWU1); experiment: biochemical; settings: read-out: %Ctrl @ 2000nM
# CDK2 = CDK2 (Homo sapiens, UniProt P24941); experiment: biochemical; settings: read-out: %Ctrl @ 2000nM
# CHEK2 = CHEK2 (Homo sapiens, UniProt O96017); experiment: biochemical; settings: read-out: %Ctrl @ 2000nM
# CSNK1D = CSNK1D (Homo sapiens, UniProt P48730); experiment: biochemical; settings: read-out: %Ctrl @ 2000nM
# CSNK1G3 = CSNK1G3 (Homo sapiens, UniProt Q9Y6M4); experiment: biochemical; settings: read-out: %Ctrl @ 2000nM
# DRAK2 = DRAK2 (Homo sapiens, UniProt O94768); experiment: biochemical; settings: read-out: %Ctrl @ 2000nM
# Chain of DRAK2 (O94768 whole entry): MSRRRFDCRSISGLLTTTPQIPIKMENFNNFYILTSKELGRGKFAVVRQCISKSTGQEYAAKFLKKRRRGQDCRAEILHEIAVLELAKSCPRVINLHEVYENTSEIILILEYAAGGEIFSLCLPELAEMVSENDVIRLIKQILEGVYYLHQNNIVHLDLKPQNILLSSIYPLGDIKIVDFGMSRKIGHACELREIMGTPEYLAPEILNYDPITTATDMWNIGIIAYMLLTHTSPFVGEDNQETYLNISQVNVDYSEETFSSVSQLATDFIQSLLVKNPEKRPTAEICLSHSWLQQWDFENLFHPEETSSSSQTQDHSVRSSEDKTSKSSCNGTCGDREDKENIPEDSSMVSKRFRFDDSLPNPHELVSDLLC
# EPHA4 = EPHA4 (Homo sapiens, UniProt P54764); experiment: biochemical; settings: read-out: %Ctrl @ 2000nM
# EPHB4 = EPHB4 (Homo sapiens, UniProt P54760); experiment: biochemical; settings: read-out: %Ctrl @ 2000nM
# ERK1 = ERK1 (Homo sapiens, UniProt P27361); experiment: biochemical; settings: read-out: %Ctrl @ 2000nM
# Chain of ERK1 (P27361 whole entry): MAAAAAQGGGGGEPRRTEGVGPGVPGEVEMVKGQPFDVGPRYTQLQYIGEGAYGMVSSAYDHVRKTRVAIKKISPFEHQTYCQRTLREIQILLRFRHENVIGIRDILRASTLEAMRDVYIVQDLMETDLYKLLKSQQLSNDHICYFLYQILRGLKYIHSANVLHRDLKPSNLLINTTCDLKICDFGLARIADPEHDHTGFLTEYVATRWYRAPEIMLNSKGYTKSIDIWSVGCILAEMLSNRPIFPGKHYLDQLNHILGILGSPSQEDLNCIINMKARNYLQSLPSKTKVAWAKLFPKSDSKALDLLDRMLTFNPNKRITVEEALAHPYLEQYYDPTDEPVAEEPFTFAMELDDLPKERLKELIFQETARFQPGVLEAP
# ERK4 = ERK4 (Homo sapiens, UniProt P31152); experiment: biochemical; settings: read-out: %Ctrl @ 2000nM
# GAK = GAK (Homo sapiens, UniProt O14976); experiment: biochemical; settings: read-out: %Ctrl @ 2000nM
# HASPIN = HASPIN (Homo sapiens, UniProt Q8TF76); experiment: biochemical; settings: read-out: %Ctrl @ 2000nM
# HPK1 = HPK1 (Homo sapiens, UniProt Q92918); experiment: biochemical; settings: read-out: %Ctrl @ 2000nM
# IRAK1 = IRAK1 (Homo sapiens, UniProt P51617); experiment: biochemical; settings: read-out: %Ctrl @ 2000nM
# KIT = KIT (Homo sapiens, UniProt P10721); experiment: biochemical; settings: read-out: %Ctrl @ 2000nM
# KIT(V559D,V654A) = KIT(V559D,V654A) (Homo sapiens, UniProt P10721, V559D/V654A); experiment: biochemical; settings: read-out: %Ctrl @ 2000nM
# MAPKAPK5 = MAPKAPK5 (Homo sapiens, UniProt Q8IW41); experiment: biochemical; settings: read-out: %Ctrl @ 2000nM
# MEK4 = MEK4 (Homo sapiens, UniProt P45985); experiment: biochemical; settings: read-out: %Ctrl @ 2000nM
# MEK5 = MEK5 (Homo sapiens, UniProt Q13163); experiment: biochemical; settings: read-out: %Ctrl @ 2000nM
# MST3 = MST3 (Homo sapiens, UniProt Q9Y6E0); experiment: biochemical; settings: read-out: %Ctrl @ 2000nM
# Chain of MST3 (Q9Y6E0 whole entry): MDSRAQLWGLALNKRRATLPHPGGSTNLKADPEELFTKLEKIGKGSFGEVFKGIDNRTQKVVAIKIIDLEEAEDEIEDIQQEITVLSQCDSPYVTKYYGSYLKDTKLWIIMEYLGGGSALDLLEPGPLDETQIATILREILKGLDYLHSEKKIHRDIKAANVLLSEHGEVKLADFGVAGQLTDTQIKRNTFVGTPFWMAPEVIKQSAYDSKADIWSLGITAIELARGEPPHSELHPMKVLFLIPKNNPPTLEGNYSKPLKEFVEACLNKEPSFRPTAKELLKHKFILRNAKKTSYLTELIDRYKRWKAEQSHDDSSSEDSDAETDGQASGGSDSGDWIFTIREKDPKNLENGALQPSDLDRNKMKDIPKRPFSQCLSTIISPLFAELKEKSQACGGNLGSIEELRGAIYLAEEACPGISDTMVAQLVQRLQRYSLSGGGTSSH
# OSR1 = OSR1 (Homo sapiens, UniProt O95747); experiment: biochemical; settings: read-out: %Ctrl @ 2000nM
# PAK3 = PAK3 (Homo sapiens, UniProt O75914); experiment: biochemical; settings: read-out: %Ctrl @ 2000nM
# PAK7 = PAK7 (Homo sapiens, UniProt Q9P286); experiment: biochemical; settings: read-out: %Ctrl @ 2000nM
# PDGFRA = PDGFRA (Homo sapiens, UniProt P16234); experiment: biochemical; settings: read-out: %Ctrl @ 2000nM
# PHKG2 = PHKG2 (Homo sapiens, UniProt P15735); experiment: biochemical; settings: read-out: %Ctrl @ 2000nM
# Chain of PHKG2 (P15735 whole entry): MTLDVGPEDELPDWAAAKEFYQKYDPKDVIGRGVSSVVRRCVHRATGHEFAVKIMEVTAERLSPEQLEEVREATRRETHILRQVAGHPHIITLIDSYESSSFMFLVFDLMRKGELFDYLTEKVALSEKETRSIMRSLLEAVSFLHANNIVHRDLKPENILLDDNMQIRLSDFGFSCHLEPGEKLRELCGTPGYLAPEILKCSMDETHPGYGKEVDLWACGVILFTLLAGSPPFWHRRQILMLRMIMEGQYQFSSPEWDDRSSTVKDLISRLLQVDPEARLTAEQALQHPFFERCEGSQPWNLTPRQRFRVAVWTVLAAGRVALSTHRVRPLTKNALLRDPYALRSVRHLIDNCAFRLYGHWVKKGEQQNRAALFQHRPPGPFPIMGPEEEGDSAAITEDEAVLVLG
# PIKFYVE = PIKFYVE (Homo sapiens, UniProt Q9Y2I7); experiment: biochemical; settings: read-out: %Ctrl @ 2000nM
# PIM1 = PIM1 (Homo sapiens, UniProt P11309); experiment: biochemical; settings: read-out: %Ctrl @ 2000nM
# PIM3 = PIM3 (Homo sapiens, UniProt Q86V86); experiment: biochemical; settings: read-out: %Ctrl @ 2000nM
# QSK = QSK (Homo sapiens, UniProt Q9Y2K2); experiment: biochemical; settings: read-out: %Ctrl @ 2000nM
# Chain of QSK (Q9Y2K2 whole entry): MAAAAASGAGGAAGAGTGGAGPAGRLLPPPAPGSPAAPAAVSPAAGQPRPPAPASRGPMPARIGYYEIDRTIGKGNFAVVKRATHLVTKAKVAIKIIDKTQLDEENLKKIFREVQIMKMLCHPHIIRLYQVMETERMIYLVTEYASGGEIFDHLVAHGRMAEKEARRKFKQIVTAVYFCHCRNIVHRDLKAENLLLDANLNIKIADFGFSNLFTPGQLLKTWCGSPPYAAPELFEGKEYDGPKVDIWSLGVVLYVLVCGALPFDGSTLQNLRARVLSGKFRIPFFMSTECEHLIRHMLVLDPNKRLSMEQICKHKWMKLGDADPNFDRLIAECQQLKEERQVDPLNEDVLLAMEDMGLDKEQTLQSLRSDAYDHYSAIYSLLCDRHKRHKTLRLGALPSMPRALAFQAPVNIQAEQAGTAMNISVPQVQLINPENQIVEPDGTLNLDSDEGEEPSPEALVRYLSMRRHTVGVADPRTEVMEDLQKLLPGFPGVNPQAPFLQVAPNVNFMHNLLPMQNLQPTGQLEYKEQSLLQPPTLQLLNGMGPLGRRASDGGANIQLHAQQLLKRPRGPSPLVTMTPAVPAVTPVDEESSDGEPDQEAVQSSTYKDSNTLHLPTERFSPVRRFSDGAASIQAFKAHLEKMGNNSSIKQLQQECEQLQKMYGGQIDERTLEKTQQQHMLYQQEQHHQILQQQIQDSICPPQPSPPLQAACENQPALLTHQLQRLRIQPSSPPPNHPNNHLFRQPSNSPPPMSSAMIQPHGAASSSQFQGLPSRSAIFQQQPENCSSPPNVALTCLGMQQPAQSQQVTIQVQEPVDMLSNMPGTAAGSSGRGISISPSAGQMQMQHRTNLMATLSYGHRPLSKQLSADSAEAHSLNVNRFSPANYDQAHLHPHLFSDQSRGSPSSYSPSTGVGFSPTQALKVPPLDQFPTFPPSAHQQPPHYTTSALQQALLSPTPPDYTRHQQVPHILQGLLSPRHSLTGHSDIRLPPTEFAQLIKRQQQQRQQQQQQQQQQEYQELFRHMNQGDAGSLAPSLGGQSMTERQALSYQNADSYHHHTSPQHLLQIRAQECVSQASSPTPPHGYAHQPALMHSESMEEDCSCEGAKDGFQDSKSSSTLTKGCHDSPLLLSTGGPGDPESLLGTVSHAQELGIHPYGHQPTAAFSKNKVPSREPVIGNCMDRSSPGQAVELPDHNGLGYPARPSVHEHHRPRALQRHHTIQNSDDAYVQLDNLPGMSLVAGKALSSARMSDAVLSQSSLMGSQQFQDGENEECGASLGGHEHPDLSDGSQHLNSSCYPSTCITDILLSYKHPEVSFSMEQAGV
# [2] = molecular target: RPS6KA4(Kin.Dom.2-C-terminal) (Homo sapiens, UniProt O75676); experiment: biochemical; settings: read-out: %Ctrl @ 2000nM
# S6K1 = S6K1 (Homo sapiens, UniProt P23443); experiment: biochemical; settings: read-out: %Ctrl @ 2000nM
# Chain of S6K1 (P23443 whole entry): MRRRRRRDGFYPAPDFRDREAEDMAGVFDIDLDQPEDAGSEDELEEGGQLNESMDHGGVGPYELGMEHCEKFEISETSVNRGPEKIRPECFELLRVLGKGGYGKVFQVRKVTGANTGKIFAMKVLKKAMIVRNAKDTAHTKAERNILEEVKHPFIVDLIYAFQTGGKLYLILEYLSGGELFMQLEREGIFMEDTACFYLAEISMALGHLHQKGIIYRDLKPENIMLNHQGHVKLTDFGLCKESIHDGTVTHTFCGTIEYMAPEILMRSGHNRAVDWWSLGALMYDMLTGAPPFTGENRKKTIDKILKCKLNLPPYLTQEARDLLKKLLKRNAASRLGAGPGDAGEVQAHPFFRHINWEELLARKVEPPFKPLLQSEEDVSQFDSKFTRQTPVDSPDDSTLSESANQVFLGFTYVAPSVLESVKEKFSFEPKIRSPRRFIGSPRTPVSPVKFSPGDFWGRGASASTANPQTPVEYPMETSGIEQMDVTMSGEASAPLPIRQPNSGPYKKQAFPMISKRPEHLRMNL
# SLK = SLK (Homo sapiens, UniProt Q9H2G2); experiment: biochemical; settings: read-out: %Ctrl @ 2000nM
# STK16 = STK16 (Homo sapiens, UniProt O75716); experiment: biochemical; settings: read-out: %Ctrl @ 2000nM
# ULK2 = ULK2 (Homo sapiens, UniProt Q8IYT8); experiment: biochemical; settings: read-out: %Ctrl @ 2000nM
# Chain of ULK2 (Q8IYT8 whole entry): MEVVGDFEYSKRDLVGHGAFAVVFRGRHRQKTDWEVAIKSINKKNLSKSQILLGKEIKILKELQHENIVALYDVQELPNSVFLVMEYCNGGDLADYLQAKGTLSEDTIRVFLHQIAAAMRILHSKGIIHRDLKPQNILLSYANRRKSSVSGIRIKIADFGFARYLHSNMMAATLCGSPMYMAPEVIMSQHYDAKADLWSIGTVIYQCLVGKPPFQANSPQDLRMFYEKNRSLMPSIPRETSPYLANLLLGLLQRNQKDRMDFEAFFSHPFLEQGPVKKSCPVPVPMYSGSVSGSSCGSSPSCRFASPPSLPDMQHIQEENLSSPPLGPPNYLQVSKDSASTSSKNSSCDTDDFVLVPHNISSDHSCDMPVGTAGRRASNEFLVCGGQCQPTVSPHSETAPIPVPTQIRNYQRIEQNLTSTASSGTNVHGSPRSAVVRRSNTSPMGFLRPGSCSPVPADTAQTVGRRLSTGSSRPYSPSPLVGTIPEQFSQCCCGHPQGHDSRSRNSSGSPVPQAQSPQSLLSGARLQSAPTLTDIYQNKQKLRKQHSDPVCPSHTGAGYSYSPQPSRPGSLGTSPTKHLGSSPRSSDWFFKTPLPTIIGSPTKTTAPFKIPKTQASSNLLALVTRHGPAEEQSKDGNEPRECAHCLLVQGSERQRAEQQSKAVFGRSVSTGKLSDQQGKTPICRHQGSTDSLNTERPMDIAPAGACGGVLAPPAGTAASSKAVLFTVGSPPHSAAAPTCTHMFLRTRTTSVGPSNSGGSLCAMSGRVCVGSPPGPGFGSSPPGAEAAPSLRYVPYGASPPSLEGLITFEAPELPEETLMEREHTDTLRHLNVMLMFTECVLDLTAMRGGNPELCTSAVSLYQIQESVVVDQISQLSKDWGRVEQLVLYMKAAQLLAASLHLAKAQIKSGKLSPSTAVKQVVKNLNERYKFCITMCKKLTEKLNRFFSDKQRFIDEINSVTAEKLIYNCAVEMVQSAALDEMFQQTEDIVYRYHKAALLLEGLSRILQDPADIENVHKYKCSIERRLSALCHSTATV
# VPS34 = VPS34 (Homo sapiens, UniProt Q8NEB9); experiment: biochemical; settings: read-out: %Ctrl @ 2000nM
# YANK3 = YANK3 (Homo sapiens, UniProt Q86UX6); experiment: biochemical; settings: read-out: %Ctrl @ 2000nM
smiles,measurement,setting,value
"CC(C)COC(=O)c1[nH]c2ccc(F)cc2c1-c1cn(CC2CCN(CCNS(=O)(=O)c3ccc(CC(C)C)cc3)CC2)nn1 [AB668, isobutyl 5-fluoro-3-(1-((1-(2-((4-isobutylphenyl)sulfonamido)ethyl)piperidin-4-yl)methyl)-1H-1,2,3-triazol-4-yl)-1H-indole-2-carboxylate]",activated forms of STAT3,STAT3 (S727),dose-dependent inhibition
same,"proliferation, cell death and apoptosis",A375 cells,induced significant cell proliferation arrest associated with cell death and apoptosis
same,remaining activity at 2 µM,[1],79%
same,remaining activity at 2 µM,ADCK3,86%
same,remaining activity at 2 µM,ASK1,100%
same,remaining activity at 2 µM,BMPR2,100%
same,remaining activity at 2 µM,CAMK2A,96%
same,remaining activity at 2 µM,CDK11,76%
same,remaining activity at 2 µM,CDK2,90%
same,remaining activity at 2 µM,CHEK2,100%
same,remaining activity at 2 µM,CSNK1D,89%
same,remaining activity at 2 µM,CSNK1G3,67%
same,remaining activity at 2 µM,DRAK2,100%
same,remaining activity at 2 µM,EPHA4,78%
same,remaining activity at 2 µM,EPHB4,79%
same,remaining activity at 2 µM,ERK1,75%
same,remaining activity at 2 µM,ERK4,84%
same,remaining activity at 2 µM,GAK,99%
same,remaining activity at 2 µM,HASPIN,100%
same,remaining activity at 2 µM,HPK1,92%
same,remaining activity at 2 µM,IRAK1,98%
same,remaining activity at 2 µM,KIT,95%
same,remaining activity at 2 µM,"KIT(V559D,V654A)",100%
same,remaining activity at 2 µM,MAPKAPK5,95%
same,remaining activity at 2 µM,MEK4,89%
same,remaining activity at 2 µM,MEK5,100%
same,remaining activity at 2 µM,MST3,100%
same,remaining activity at 2 µM,OSR1,81%
same,remaining activity at 2 µM,PAK3,95%
same,remaining activity at 2 µM,PAK7,85%
same,remaining activity at 2 µM,PDGFRA,86%
same,remaining activity at 2 µM,PHKG2,88%
same,remaining activity at 2 µM,PIKFYVE,1.7%
same,remaining activity at 2 µM,PIM1,91%
same,remaining activity at 2 µM,PIM3,85%
same,remaining activity at 2 µM,QSK,85%
same,remaining activity at 2 µM,[2],97%
same,remaining activity at 2 µM,S6K1,89%
same,remaining activity at 2 µM,SLK,100%
same,remaining activity at 2 µM,STK16,82%
same,remaining activity at 2 µM,ULK2,100%
same,remaining activity at 2 µM,VPS34,100%
same,remaining activity at 2 µM,YANK3,92%
